Test results as given in US20050130890A1, “Amyloid beta is a ligand for FPR class receptors” (priority 2001, published 2005).

Legend:
human monocytes [1] = assay: Ca2+ mobilization in fura-2 loaded human monocytes; format: cell-based; conditions: PT-treated cells, 20 μM Aβ42
Source text: (§1) Reagents and cells. Aβ peptide (Aβ42) and the peptide with reversed sequence (Aβ42-1) were purchased from California Peptide Research (Napa, Calif.). All peptides were examined for endotoxin contamination and were negative at highest concentrations used in the study. Human peripheral blood monocytes were isolated from buffy coats (National Institutes of Health Clinical Center, Bethesda, Md.) enriched for mononuclear cells by using iso-osmotic Percoll gradient. The purity of the cell preparations was examined by morphology and was >90%. Rat basophilic leukemia cell line (RBL-2H3) transfected with epitope-tagged N-formylpeptide receptor (FPR) (designated ETFR) was a kind gift of Dr. R. Snyderman (Duke University, Durham, N.C.). cDNA cloning and establishment of FPRL1-transfected human embryonic kidney (HEK) 293 cells (FPRL1/293) were described previously (Gao J. L. & Murphy P. M. 1993 J Biol Chem 268:[…]). All the transfected cells were maintained in culture media as described (Su S. B. et al. 1999 J Exp Med 189:395-402).
(§2) Chemotaxis assays and measurement of calcium mobilization. Chemotaxis assays were performed using 48-well chemotaxis chambers (Deng X. et al. 1999 Blood 94:1165-1673). The results were expressed as the mean number (±SD) of migrated cells in three high-powered fields in three replicate samples. Chemotaxis index, which represented the fold increase in the number of cells migrated in response to chemoattractants over the cell response to control medium, also was used. Ca^+ mobilization was measured by stimulating fura-2 AM-loaded human monocytes or receptor-transfected cells with various agents (Deng X. et al. 1999 Blood 94:1165-1673; Su S. B. et al. 1999 J Exp Med 189:395-402) and recording the ratio of fluorescence at 340 and 380 nm in a luminescence spectrometer with FL WinLab program (Perkin-Elmer, Beaconsfield, UK).

human monocytes [2] = assay: Chemotaxis (migration) of human monocytes, 48-well chamber; format: cell-based; conditions: PT 100 ng/ml, 37° C., 30 min
Source text: as §1, §2

[3] = tested on: N9 murine microglial cell line; assay: Chemotaxis of N9 microglial cells; format: cell-based, mouse; conditions: LPS-activated N9 cells; PTX 100 ng/ml, 37° C., 30 min
mouse neutrophils = assay: Calcium flux in mouse neutrophils; format: cell-based; conditions: PTX 250 ng/ml for 4 h
Method: Preparation of Mouse Neutrophils. Neutrophils were obtained from the peritoneal cavity of wild type and gene knockout litter mates of F1 and F6 backcrosses of 129/sV FPR−/− mice with C57B1/6 mice 3-4 h after intraperitoneal injection of a 3% thioglycollate solution, as previously described (Gao J-L. et al. 1999 J Exp Med 189:657-662). The cell population was consistently composed of >90% neutrophils, as determined by light microscopy of DiffQuick-stained cytospins. Thus, hereafter we will refer to this cell preparation as neutrophils.
Calcium Flux Analysis. To monitor intracellular Ca^2+ concentration, adherent cells were harvested by incubation in phosphate-buffered saline at 37° C. for 15 min and then incubated in phosphate-buffered saline containing 2.5 μM Fura-2/AM at 37° C. for 45 min. […] Data were recorded every 200 ms as the relative ratio of fluorescence emitted at 510 nm following sequential excitation at 340 and 380 nm. The following ligands were evaluated: Aβ (nonfibrillated, human residues 1-42; California Peptide Research; Napa, Calif.), fMet-Leu-Phe (fMLF; Sigma), ATP (Life Technologies), and the chemokines RANTES (regulated upon activation normal T-cell expressed and secreted), SDF-1 (stromal cell-derived factor-1), 1-309, fractalkine, MIP-1α (macrophage inflammatory protein-1α), and KC (Peprotech, Rocky Hill, N.J.). […]

pertussis toxin
effect of preincubation on monocyte calcium flux in response to Aβ42 (human monocytes [1]): completely abolished | effect of preincubation on monocyte migration in response to Aβ42 (human monocytes [2]): completely abolished | effect of pretreatment on chemotaxis to Aβ [3]: completely blocked | effect of pretreatment on Aβ induction of calcium flux (mouse neutrophils): completely blocked
